Results as given in patent US10105357B2, “Indication of antibiotic drugs for preparation of cancer inhibition pharmaceutical composition” (LAUNX BIOMEDICAL CO., LTD., priority 2014, dated 2018).
Where a name gives a salt, the structure may show the parent alone. Read-outs that look alike come from different tables or passages of the source.

Assays:
[1] = system: MCF7 (Mammary Gland, Adenocarcinoma); assay: Cell viability analysis, breast cancer MCF7; type: cell-based, human; conditions: Homo sapiens, MCF7, 72 h
[2] = system: U-2OS; assay: Cell viability analysis, osteosarcoma U-2OS; type: cell-based, human; conditions: Homo sapiens, 72 h; U2OS; repeated experiment; read-out: The results of antibiotic drug inhibiting cancer cell lines (cell viability analysis), U2OS
[3] = system: TOV-21G; assay: Cell viability analysis, ovarian cancer TOV-21G; type: cell-based, human; conditions: Homo sapiens, TOV21G, 72 h; TOV-21G; repeated experiment; read-out: The results of antibiotic drug inhibiting cancer cell lines (cell viability analysis), TOV-21G
[4] = system: PC3 (p53−) (Prostate Adenocarcinoma); assay: Cell viability analysis, prostate cancer PC3; type: cell-based, human; conditions: Homo sapiens, 72 h
[5] = system: A549 (Lung Adenocarcinoma); assay: Cell viability analysis, lung cancer A549; type: cell-based, human; conditions: Homo sapiens, A549, 72 h
[6] = system: C-33A (Cervical carcinoma); assay: Cell viability analysis, cervical cancer C-33A; type: cell-based, human; conditions: Homo sapiens, 72 h; C-33A; repeated experiment; read-out: The results of antibiotic drug inhibiting cancer cell lines (cell viability analysis), C-33A
[7] = system: cancer cell lines; assay: Cell viability analysis (WST-1) on cancer cell lines; type: cell-based, human; conditions: drug 10 μM, 72 hours, WST-1; Table 3
[8] = system: HL-60 (Acute Promyelocytic Leukemia); assay: Cell viability analysis, leukemia HL-60; type: cell-based, human; conditions: Homo sapiens, HL-60, 72 h, drug 10 μM, 72 hours, WST-1, OD450 nm; read-out: cell viability (survival rate), HL-60
[9] = system: NIH: OVCAR-3; assay: Cell viability analysis, ovarian cancer NIH: OVCAR-3; type: cell-based, human; conditions: Homo sapiens, 72 h; NIH-OVCAR-3; repeated experiment; read-out: The results of antibiotic drug inhibiting cancer cell lines (cell viability analysis), NIH-OVCAR-3
[10] = system: AsPC-1; assay: Cell viability analysis, pancreatic cancer AsPC-1; type: cell-based, human; conditions: Homo sapiens, ASPC1, 72 h; AsPC-1; repeated experiment; read-out: The results of antibiotic drug inhibiting cancer cell lines (cell viability analysis), AsPC-1
[11] = system: BxPC-3; assay: Cell viability analysis, pancreatic cancer BxPC-3; type: cell-based, human; conditions: Homo sapiens, 72 h; BxPC-3; repeated experiment; read-out: The results of antibiotic drug inhibiting cancer cell lines (cell viability analysis), BxPC-3
[12] = system: HeLa (Cervix Adenocarcinoma); assay: Cell viability analysis, cervical cancer HeLa; type: cell-based, human; conditions: Homo sapiens, HeLa, 72 h, HeLa
[13] = system: MDA-MB-231 (Mammary Gland, Adenocarcinoma); assay: Cell viability analysis, breast cancer MDA-MB-231; type: cell-based, human; conditions: Homo sapiens, MDA-MB-231, 72 h; MDA-MB231; repeated experiment; read-out: The results of antibiotic drug inhibiting cancer cell lines (cell viability analysis), MDA-MB231
[14] = system: TSGH-8301 (Urinary Bladder Carcinoma); assay: Cell viability analysis, bladder cancer TSGH-8301; type: cell-based, human; conditions: Homo sapiens, 72 h
[15] = system: MKN-45 (Gastric Adenocarcinoma); assay: Cell viability analysis, gastric cancer MKN-45; type: cell-based, human; conditions: Homo sapiens, MKN-45, 72 h
[16] = system: HepG2 (Hepatocellular Carcinoma); assay: Cell viability analysis, hepatic cancer HepG2; type: cell-based, human; conditions: Homo sapiens, HepG2, 72 h
[17] = system: LoVo (Colorectal Adenocarcinoma); assay: Cell viability analysis, colon cancer LoVo; type: cell-based, human; conditions: Homo sapiens, LoVo, 72 h
[18] = system: A375 (Amelanotic Melanoma); assay: Cell viability analysis, skin cancer A375; type: cell-based, human; conditions: Homo sapiens, A-375, 72 h
[19] = system: HI650 (Lung Adenocarcinoma); assay: Cell viability analysis, lung cancer HI650; type: cell-based, human; conditions: Homo sapiens, NCI-H1650, 72 h
[20] = system: 786-O (Renal adenocarcinoma); assay: Cell viability analysis, renal cancer 786-O; type: cell-based, human; conditions: Homo sapiens, 786-0, 72 h; 786-O; repeated experiment; read-out: The results of antibiotic drug inhibiting cancer cell lines (cell viability analysis), 786-O
[21] = system: SAS (Tongue squamous cell carcinoma); assay: Cell viability analysis, tongue cancer SAS; type: cell-based, human; conditions: Homo sapiens, 72 h; SAS; repeated experiment; read-out: The results of antibiotic drug inhibiting cancer cell lines (cell viability analysis), SAS
[22] = system: HCT116 (p53+) (Colorectal Carcinoma)
[23] = system: Hep3B (hepatocellular carcinoma); assay: Cell viability analysis, hepatic cancer Hep3B; type: cell-based, human; conditions: Homo sapiens, 72 h; Hep3B; repeated experiment; read-out: The results of antibiotic drug inhibiting cancer cell lines (cell viability analysis), Hep3B
[24] = system: AGS (Gastric Adenocarcinoma); assay: Cell viability analysis, gastric cancer AGS; type: cell-based, human; conditions: Homo sapiens, 72 h
[25] = MCF-7, repeated experiment, read-out: The results of antibiotic drug inhibiting cancer cell lines (cell viability analysis), MCF-7
[26] = drug 10 μM, 72 hours, WST-1, OD450 nm, read-out: cell viability (survival rate), MCF7
[27] = PC-3, repeated experiment, read-out: The results of antibiotic drug inhibiting cancer cell lines (cell viability analysis), PC-3
[28] = drug 10 μM, 72 hours, WST-1, OD450 nm, read-out: cell viability (survival rate), PC3
[29] = A549, repeated experiment, read-out: The results of antibiotic drug inhibiting cancer cell lines (cell viability analysis), A549
[30] = drug 10 μM, 72 hours, WST-1, OD450 nm, read-out: cell viability (survival rate), A549
[31] = repeated experiment, read-out: The results of antibiotic drug inhibiting cancer cell lines (cell viability analysis), HeLa
[32] = drug 10 μM, 72 hours, WST-1, OD450 nm, read-out: cell viability (survival rate), HeLa
[33] = TSGH-8301, repeated experiment, read-out: The results of antibiotic drug inhibiting cancer cell lines (cell viability analysis), TSGH-8301
[34] = drug 10 μM, 72 hours, WST-1, OD450 nm, read-out: cell viability (survival rate), TSGH
[35] = MKN-45, repeated experiment, read-out: The results of antibiotic drug inhibiting cancer cell lines (cell viability analysis), MKN-45
[36] = drug 10 μM, 72 hours, WST-1, OD450 nm, read-out: cell viability (survival rate), MKN-45
[37] = HepG2, repeated experiment, read-out: The results of antibiotic drug inhibiting cancer cell lines (cell viability analysis), HepG2
[38] = drug 10 μM, 72 hours, WST-1, OD450 nm, read-out: cell viability (survival rate), HepG2
[39] = read-out: The results of antibiotic drug inhibiting cancer cell lines (cell viability analysis), LoVo, repeated experiment
[40] = read-out: cell viability (survival rate), LoVo, drug 10 μM, 72 hours, WST-1, OD450 nm
[41] = A375, repeated experiment, read-out: The results of antibiotic drug inhibiting cancer cell lines (cell viability analysis), A375
[42] = drug 10 μM, 72 hours, WST-1, OD450 nm, read-out: cell viability (survival rate), A375
[43] = H1650, repeated experiment, read-out: The results of antibiotic drug inhibiting cancer cell lines (cell viability analysis), H1650
[44] = drug 10 μM, 72 hours, WST-1, OD450 nm, read-out: cell viability (survival rate), H1650
[45] = AGS, repeated experiment, read-out: The results of antibiotic drug inhibiting cancer cell lines (cell viability analysis), AGS
[46] = drug 10 μM, 72 hours, WST-1, OD450 nm, read-out: cell viability (survival rate), AGS

Row | Structure (SMILES) | viability at 10 µM [1, 25] [%] | viability at 10 µM [1, 26] [%] | viability at 10 µM [2] [%] | viability at 10 µM [3] [%] | viability at 10 µM [4, 27] [%] | viability at 10 µM [4, 28] [%] | viability at 10 µM [5, 29] [%] | viability at 10 µM [5, 30] [%] | viability at 10 µM [6] [%] | inhibition effect on different cancer cell lines [7] | viability at 10 µM [8] [%] | viability at 10 µM [9] [%] | viability at 10 µM [10] [%] | viability at 10 µM [11] [%] | viability at 10 µM [12, 31] [%] | viability at 10 µM [12, 32] [%] | viability at 10 µM [13] [%] | viability at 10 µM [14, 34] [%] | viability at 10 µM [15, 35] [%] | viability at 10 µM [15, 36] [%] | other results
1 | CCCCCCCCCCCCCCCC[N+](C)(C)CCN(Cc1ccc(OC)cc1)c1ncccn1 [Thonzonium Bromide] | 41 | 47 | 31.7 | 17.4 | 29.3 | 46.2 | 15 | 36.6 | 32.5 | significant inhibition effect | 35.2 | 55.7 | 27.6 | 24.4 | 20.3 | 28 | 33.1 | 18.4 | 31.2 | 47 | viability at 10 µM [14, 33]: 16.7%; viability at 10 µM [16, 37]: 47.7%; viability at 10 µM [16, 38]: 45.1%; viability at 10 µM [17, 39]: 50.9%; viability at 10 µM [17, 40]: 39.4%; viability at 10 µM [18, 41]: 12.4%; viability at 10 µM [18, 42]: 24.4%; viability at 10 µM [19, 43]: 37.6%; viability at 10 µM [19, 44]: 36.7%; viability at 10 µM [20]: 16.8%; viability at 10 µM [21]: 20.4%; viability [22]: 18.8%; viability at 10 µM [23]: 51.3%; viability at 10 µM [24, 45]: 14.4%; viability at 10 µM [24, 46]: 22.5%
2 | NC(=O)N/N=C/c1ccc([N+](=O)[O-])o1 [Nitrofurazone (Nitrofural), Nitrofurazone] | 107 | 35.3 | 92.4 | 95.7 | 98.6 | 53.8 | 114 | 44.3 | 83.2 | significant inhibition effect | 85.6 | 99.5 | 76.7 | 71.6 | 51.2 | 55.4 | 84 | 32.5 | 86.8 | 42 | viability at 10 µM [14, 33]: 83.9%; viability at 10 µM [16, 37]: 95.4%; viability at 10 µM [16, 38]: 82.4%; viability at 10 µM [17, 39]: 84.8%; viability at 10 µM [17, 40]: 64.9%; viability at 10 µM [18, 41]: 94.7%; viability at 10 µM [18, 42]: 54.9%; viability at 10 µM [19, 43]: 67.3%; viability at 10 µM [19, 44]: 61.1%; viability at 10 µM [20]: 90%; viability at 10 µM [21]: 92.3%; viability [22]: 110%; viability at 10 µM [23]: 95.3%; viability at 10 µM [24, 45]: 88.2%; viability at 10 µM [24, 46]: 28%
3 | CCc1cc2c(cc1CC)CC(NC[C@H](O)c1ccc(O)c3[nH]c(=O)ccc13)C2 [Indacaterol Maleate] | 72.5 | 68.7 | 62.6 | 95.3 | 100 | 55.5 | 79.6 | 65.1 | 94.3 | significant inhibition effect | 87.2 | 79.3 | 85.4 | 91.4 | 96.6 | 71.8 | 103 | 56 | 84.5 | 30.3 | viability at 10 µM [16, 37]: 84.4%; viability at 10 µM [16, 38]: 81.2%; viability at 10 µM [17, 39]: 79.1%; viability at 10 µM [17, 40]: 61.4%; viability at 10 µM [18, 41]: 87.2%; viability at 10 µM [18, 42]: 45.7%; viability at 10 µM [19, 43]: 86.6%; viability at 10 µM [19, 44]: 36%; viability at 10 µM [20]: 82.6%; viability at 10 µM [21]: 61.7%; viability [22]: 91.9%; viability at 10 µM [23]: 97.6%; viability at 10 µM [24, 45]: 50.2%; viability at 10 µM [24, 46]: 54.1%
